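Results reflect a 48-hour exposure of cells in 96-well plates to compound at five concentrations. GI50: concentration for 50% inhibition of growth.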 Active and inactive are the calls of the source. Rule as the data show it: active = GI50 up to about 1.1 µM and inactive = higher.
Assays:
Assay in all cases: DTP human tumour cell line panel, 48 h
[1] = tested on: HCT-15
[2] = tested on: OVCAR-3
[3] = tested on: K562
[4] = tested on: SNB-19
[5] = tested on: HOP-92
[6] = tested on: OVCAR-5
[7] = tested on: ACHN
[8] = tested on: LOX IMVI
[9] = tested on: HCC 2998
[10] = tested on: Malme-3M
[11] = tested on: A498
[12] = tested on: SF-268
[13] = tested on: NCI-H522
[14] = tested on: RPMI-8226
[15] = tested on: NCI-H226
[16] = tested on: SK-MEL-28
[17] = tested on: SK-OV-3
[18] = tested on: HOP-62

## Cc1cccc(/N=C2\NC(=O)C(CC(=O)Nc3ccc(C)cc3C)S2)c1 (centres undefined)
[1]
  GI50: > 100 µM
[2]
  GI50: 69 µM (inactive)
[3]
  GI50: 65.8 µM (inactive)
[4]
  GI50: 74.8 µM (inactive)
[5]
  GI50: 55.7 µM (inactive)
[6]
  GI50: 88.1 µM (inactive)
[7]
  GI50: > 100 µM (inactive)
[8]
  GI50: > 100 µM (inactive)
[9]
  GI50: > 100 µM (inactive)
[10]
  GI50: > 100 µM (inactive)
[11]
  GI50: > 100 µM (inactive)
[12]
  GI50: > 100 µM (inactive)
[13]
  GI50: 64.3 µM (inactive)
[14]
  GI50: 55.3 µM (inactive)
[15]
  GI50: 84.3 µM (inactive)
[16]
  GI50: > 100 µM (inactive)

## Cn1cnc([N+](=O)[O-])c1Sc1nccc(O)n1
[2]
  GI50: > 100 µM (inactive)
[3]
  GI50: > 100 µM (inactive)
[4]
  GI50: > 100 µM (inactive)
[5]
  GI50: > 100 µM (inactive)
[6]
  GI50: > 100 µM (inactive)
[7]
  GI50: > 100 µM (inactive)
[17]
  GI50: > 100 µM (inactive)
[8]
  GI50: > 100 µM (inactive)
[9]
  GI50: > 100 µM (inactive)
[10]
  GI50: > 100 µM (inactive)
[11]
  GI50: > 100 µM (inactive)
[12]
  GI50: > 100 µM (inactive)
[13]
  GI50: > 100 µM (inactive)
[14]
  GI50: > 100 µM (inactive)
[15]
  GI50: > 100 µM (inactive)
[16]
  GI50: > 100 µM (inactive)
[18]
  GI50: > 100 µM (inactive)

## CC(=O)OCC1OC(Nc2nc(O)n(C)c(=O)c2-c2csc(N)n2)C(OC(C)=O)C(OC(C)=O)C1OC(C)=O (centres undefined)
[1]
  GI50: > 100 µM
[2]
  GI50: > 100 µM (inactive)
[3]
  GI50: > 100 µM (inactive)
[4]
  GI50: > 100 µM (inactive)
[5]
  GI50: > 100 µM (inactive)
[6]
  GI50: > 100 µM (inactive)
[7]
  GI50: > 100 µM (inactive)
[17]
  GI50: > 100 µM (inactive)
[8]
  GI50: > 100 µM (inactive)
[10]
  GI50: > 100 µM (inactive)
[11]
  GI50: > 100 µM (inactive)
[12]
  GI50: > 100 µM (inactive)
[13]
  GI50: > 100 µM (inactive)
[14]
  GI50: > 100 µM (inactive)
[15]
  GI50: > 100 µM (inactive)
[16]
  GI50: > 100 µM (inactive)
[18]
  GI50: > 100 µM (inactive)

## O=c1c2ccccc2sc2nc(O)nn12
[1]
  GI50: > 100 µM
[2]
  GI50: > 100 µM (inactive)
[3]
  GI50: > 100 µM (inactive)
[4]
  GI50: > 100 µM (inactive)
[5]
  GI50: > 100 µM (inactive)
[6]
  GI50: > 100 µM (inactive)
[7]
  GI50: > 100 µM (inactive)
[17]
  GI50: > 100 µM (inactive)
[8]
  GI50: > 100 µM (inactive)
[9]
  GI50: > 100 µM (inactive)
[10]
  GI50: > 100 µM (inactive)
[12]
  GI50: > 100 µM (inactive)
[14]
  GI50: > 100 µM (inactive)
[15]
  GI50: > 100 µM (inactive)
[16]
  GI50: > 100 µM (inactive)
[18]
  GI50: > 100 µM (inactive)

## Cc1cccc2c1C(=O)OC2(c1cccc2ccccc12)c1cccc2ccccc12
[1]
  GI50: > 100 µM
[2]
  GI50: > 100 µM (inactive)
[3]
  GI50: > 100 µM (inactive)
[4]
  GI50: 81.1 µM (inactive)
[6]
  GI50: > 100 µM (inactive)
[7]
  GI50: 63.5 µM (inactive)
[17]
  GI50: > 100 µM (inactive)
[8]
  GI50: > 100 µM (inactive)
[9]
  GI50: > 100 µM (inactive)
[10]
  GI50: > 100 µM (inactive)
[11]
  GI50: > 100 µM (inactive)
[12]
  GI50: 56 µM (inactive)
[13]
  GI50: 61 µM (inactive)
[15]
  GI50: > 100 µM (inactive)
[16]
  GI50: > 100 µM (inactive)
[18]
  GI50: 27.4 µM (inactive)

## CCN(CC)C(=S)SS(C)(=O)=O
[1]
  GI50: 13.4 µM
[3]
  GI50: < 0.01 µM (active)
[4]
  GI50: 23.9 µM (inactive)
[5]
  GI50: 30.6 µM (inactive)
[6]
  GI50: 19.4 µM (inactive)
[7]
  GI50: 16.7 µM (inactive)
[17]
  GI50: 75.7 µM (inactive)
[8]
  GI50: 13.6 µM (inactive)
[10]
  GI50: 26.7 µM (inactive)
[13]
  GI50: < 0.01 µM (active)
[15]
  GI50: 14.8 µM (inactive)
[18]
  GI50: 18.7 µM (inactive)

— ChEMBL document CHEMBL1201862, “PubChem BioAssay data set” (2004)
